Reference: patent US20010044445A1, “AZOLE INHIBITORS OF CYTOKINE PRODUCTION” (priority 1999, published 2001)

Key:
[1] = system: Human peripheral blood mononuclear cells; experiment: Human Concanavalin-A Proliferation Assay (Con HU Assay); type: cell-based; settings: Homo sapiens, PBMC, concanavalin-A stimulated human PBMC; for inhibition at 100 µM / inhibition at 10 µM / inhibition at 1 µM: 72 h, 3 days, read-out: % Inhibition of proliferation (at concentrations of 1,10, or 100 μm); for inhibition at 100 µM: concentration 100 μm (in parentheses in the cell); for IC50: tritiated thymidine; for inhibition at 10 µM: concentration 10 μm (in parentheses in the cell); for inhibition at 1 µM: concentration 1 μm (in parentheses in the cell)
Procedure, shortened: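 Proliferation read as tritiated thymidine uptake (0.5 μCi/well, 6 h pulse on day 3) in human PBMC cultured 3 days with 2.5 μg/ml (final) concanavalin-A. Cells, 50,000 per well in supplemented RPMI 1640 with 10% FBS, received compound 15 min before mitogen.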

melting point	SMILES	inhibition at 100 µM [1]	IC50 [1]	inhibition at 10 µM [1]	inhibition at 1 µM [1]
156 to 159 °C	O=C(Nc1ccc(-n2nc(C(F)(F)F)cc2C(F)(F)F)cc1)C1CCNCC1 [Example 125, N-[4-[3,5-bis(trifluoromethyl)-1H-pyrazol-1-yl]phenyl]-4-piperidinecarboxamide]				6%
194 to 195 °C	CS(=O)(=O)c1cccc(C(=O)Nc2ccc(-n3nc(C(F)(F)F)cc3C(F)(F)F)cc2)c1 [Example 126, N-[4-[3,5-bis(trifluoromethyl)-1H-pyrazol-1-yl]phenyl]-3-(methylsulfonyl)benzamide]		4.91 µM	79%	
133 to 135 °C	O=C(Nc1ccc(-n2nc(C(F)(F)F)cc2C(F)(F)F)cc1)c1ccccc1C(F)(F)F [Example 127, N-[4-[3,5-bis(trifluoromethyl)-1H-pyrazol-1-yl]phenyl]-2-(trifluoromethyl)benzamide]	100%	0.487 µM		
174 to 175 °C	COC(=O)c1cccc(C(=O)Nc2ccc(-n3nc(C(F)(F)F)cc3C(F)(F)F)cc2)c1 [Example 129, Methyl 3-[[[4-[3,5-bis(trifluoromethyl)-1H-pyrazol-1-yl]phenyl]amino]carbonyl]benzoate]	100%	0.38 µM		
142 to 144 °C	O=C(Nc1ccc(-n2nc(C(F)(F)F)cc2C(F)(F)F)cc1)c1cccc(Cl)c1 [Example 130, N-[4-[3,5-bis(trifluoromethyl)-1H-pyrazol-1-yl]phenyl]-3-chlorobenzamide]	100%	0.336 µM		
116 to 117 °C	N#Cc1cccc(/C=C/c2ccc(-n3nc(C(F)(F)F)cc3C(F)(F)F)cc2)c1 [Example 132, (E)-3-[2-[4-[3,5-bis(trifluoromethyl)-1H-pyrazol-1-yl]phenyl]ethenyl]benzonitrile]		6.21 µM	56%	
290 to 291 °C	NC(=O)c1ccc(C(=O)Nc2ccc(-n3nc(C(F)(F)F)cc3C(F)(F)F)cc2)cc1 [Example 133, N-[4-[3,5-bis(trifluoromethyl)-1H-pyrazol-1-yl]phenyl]-1,4-benzenedicarboxamide]		0.315 µM	97%	
126 to 128 °C	O=C(Nc1ccc(-n2nc(C(F)(F)F)cc2C(F)(F)F)cc1)c1ccc(F)cc1F [Example 135, N-[4-[3,5-bis(trifluoromethyl)-1H-pyrazol-1-yl]phenyl]-2,4-difluorobenzamide]	100%	0.207 µM		
174 to 176 °C	O=C(Nc1ccc(-n2nc(C(F)(F)F)cc2C(F)(F)F)cc1)c1ccccc1[N+](=O)[O-] [Example 136, N-[4-[3,5-bis(trifluoromethyl)-1H-pyrazol-1-yl]phenyl]-2-nitrobenzamide]	99%	0.222 µM		
162 to 163 °C	N#Cc1cccc(C(=O)Nc2ccc(-n3nc(C(F)(F)F)cc3C(F)(F)F)cc2)c1 [Example 137, N-[4-[3,5-bis(trifluoromethyl)-1H-pyrazol-1-yl]phenyl]-3-cyanobenzamide]	98%	0.12 µM		

More lines, now with the values behind:

SMILES	melting point	inhibition at 100 µM [1]	IC50 [1]	inhibition at 10 µM [1]	inhibition at 1 µM [1]
O=C(Nc1ccc(-n2nc(C(F)(F)F)cc2C(F)(F)F)cc1)c1ccc(F)cc1 [Example 90, N-[4-[3,5-bis(trifluoromethyl)-1H-pyrazol-1-yl]phenyl]-4-fluorobenzamide]	184 to 186 °C	98%	0.144 µM		
O=C(Nc1ccc(-n2nc(C(F)(F)F)cc2C(F)(F)F)cc1)c1ccccc1Cl [Example 91, N-[4-[3,5-bis(trifluoromethyl)-1H-pyrazol-1-yl]phenyl]-2-chlorobenzamide]	155 to 157 °C	99%	0.138 µM		
O=C(Nc1ccc(-n2nc(C(F)(F)F)cc2C(F)(F)F)cc1)c1ccccc1 [Example 92, N-[4-[3,5-bis(trifluoromethyl)-1H-pyrazol-1-yl]phenyl]benzamide]	177 to 178 °C	92%	0.673 µM		
O=C(Nc1ccc(-n2nc(C(F)(F)F)cc2C(F)(F)F)cc1)c1ccc([N+](=O)[O-])cc1 [Example 93, N-[4-[3,5-bis(trifluoromethyl)-1H-pyrazol-1-yl]phenyl]-4-nitrobenzamide]	185 to 188 °C	100%	0.365 µM		
Fc1ccc(NCc2ccc(-n3nc(C(F)(F)F)cc3C(F)(F)F)cc2)cc1 [Example 94, 4-[3,5-Bis(trifluoromethyl)-1H-pyrazol-1-yl]-N-(4-fluorophenyl)benzenemethanamine]	102 to 103 °C			3%	
Cc1ccccc1C(=O)Nc1ccc(-n2nc(C(F)(F)F)cc2C(F)(F)F)cc1 [Example 96, N-[4-[3,5-bis(trifluoromethyl)-1H-pyrazol-1-yl]phenyl]-2-methylbenzamide]	165 to 167 °C	99%	0.338 µM		
Cc1ccc(C(=O)Nc2ccc(-n3nc(C(F)(F)F)cc3C(F)(F)F)cc2)cc1 [Example 100, N-[4-[3,5-bis (trifluoromethyl)-1H-pyrazol-1-yl]phenyl]-4-methylbenzamide]	225 to 226 °C	75%	2.15 µM		
O=C(Nc1ccc(-n2nc(C(F)(F)F)cc2C(F)(F)F)cc1)c1cccc(C(F)(F)F)c1 [Example 101, N-[4-[3,5-bis(trifluoromethyl)-1H-pyrazol-1-yl]phenyl]-3-(trifluoromethyl)benzamide]	143 to 145 °C	100%	2.23 µM		
CC(C)=CC(=O)Nc1ccc(-n2nc(C(F)(F)F)cc2C(F)(F)F)cc1 [Example 102, N-[4-[3,5-bis(trifluoromethyl)-1H-pyrazol-1-yl]phenyl]-3-methyl-2-butenamide]	150 to 152 °C	100%	0.503 µM		
O=C(Nc1ccc(-n2nc(C(F)(F)F)cc2C(F)(F)F)cc1)c1ccccc1O [Example 103, N-[4-[3,5-bis(trifluoromethyl)-1H-pyrazol-1-yl]phenyl]-2-hydroxybenzamide]	173 to 175 °C				14%
O=C(Nc1ccc(-n2nc(C(F)(F)F)cc2C(F)(F)F)cc1)c1cccc(O)c1 [Example 104, N-[4-[3,5-bis(trifluoromethyl)-1H-pyrazol-1-yl]phenyl]-3-hydroxybenzamide]	221 to 223 °C	99%	0.394 µM		
Cc1nc(C)c(C(=O)Nc2ccc(-n3nc(C(F)(F)F)cc3C(F)(F)F)cc2)s1 [Example 105, N-[4-[3,5-bis(trifluoromethyl)-1H-pyrazol-1-yl]phenyl]-2,4-dimethyl-5-thiazolecarboxamide]	158 to 159 °C		0.387 µM	100%	
O=C(Nc1ccc(-n2nc(C(F)(F)F)cc2C(F)(F)F)cc1)c1cccnc1 [Example 106, N-[4-[3,5-bis(trifluoromethyl)-1H-pyrazol-1-yl]phenyl]-3-pyridinecarboxamide]	185 to 188 °C		0.237 µM	100%	
O=C(Nc1ccc(-n2nc(C(F)(F)F)cc2C(F)(F)F)cc1)c1ccc(CO)cc1 [Example 107, N-[4-[3,5-bis(trifluoromethyl)-1H-pyrazol-1-yl]phenyl]-4-(hydroxymethyl)benzamide]	213 to 214 °C		0.304 µM	99%	
CS(=O)(=O)c1ccc(C(=O)Nc2ccc(-n3nc(C(F)(F)F)cc3C(F)(F)F)cc2)cc1 [Example 109, N-[4-[3,5-bis(trifluoromethyl)-1H-pyrazol-1-yl]phenyl]-4-(methylsulfonyl)benzamide]	216 to 218 °C				45%
O=C(Nc1ccc(-n2nc(C(F)(F)F)cc2C(F)(F)F)cc1)c1ccccc1I [Example 110, N-[4-[3,5-bis(trifluoromethyl)-1H-pyrazol-1-yl]phenyl]-2-iodobenzamide]	180 to 182 °C		0.314 µM	99%	
O=C(Nc1ccc(-n2nc(C(F)(F)F)cc2C(F)(F)F)cc1)c1ccccc1F [Example 114, N-[4-[3,5-bis(trifluoromethyl)-1H-pyrazol-1-yl]phenyl]-2-fluorobenzamide]	188 to 190 °C	98%	0.084 µM		
O=C(Nc1ccc(-n2nc(C(F)(F)F)cc2C(F)(F)F)cc1)c1ccncc1 [Example 116, N-[4-[3,5-bis(trifluoromethyl)-1H-pyrazol-1-yl]phenyl]-4-pyridinecarboxamide]	156 to 157 °C		0.154 µM	100%	
O=C(Nc1ccc(-n2nc(C(F)(F)F)cc2C(F)(F)F)cc1)c1ccc(Cl)cc1[N+](=O)[O-] [Example 117, N-[4-[3,5-bis(trifluoromethyl)-1H-pyrazol-1-yl]phenyl]-4-chloro-2-nitrobenzamide]	163 to 166 °C	100%	0.158 µM		
CC(=O)c1ccc(C(=O)Nc2ccc(-n3nc(C(F)(F)F)cc3C(F)(F)F)cc2)cc1 [Example 119, 4-Acetyl-N-[4-[3,5-bis(trifluoromethyl)-1H-pyrazol-1-yl]phenyl]benzamide]	203 to 204 °C		0.572 µM	100%	
